For test [1], the target named is PI3K-α (PIK3CA) in MDA-MB-453 cells (Homo sapiens, UniProt P42336). As to the kind of experiment: PI3K-alpha kinase (PIK3CA) in vitro cell based assay, MDA-MB-453 cells, SureFire Ultra AlphaLisa. The settings on record: read-out: PI3K-α (PIK3CA) in vitro cell based assay IC50. The method, boiled down: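 Cells treated 3 h in serum-free MEM with 1 μg/mL insulin, 10-point 1:3 series in 0.3% DMSO, then lysed for SureFire Ultra AlphaLisa read-out. Inhibition normalized to DMSO (max) and 1 μM GDC-0032 (min); duplicate averages fitted by 4-parameter logistic for relative IC50.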
Chain of PI3K-α (PIK3CA) in MDA-MB-453 cells (P27986 2-724): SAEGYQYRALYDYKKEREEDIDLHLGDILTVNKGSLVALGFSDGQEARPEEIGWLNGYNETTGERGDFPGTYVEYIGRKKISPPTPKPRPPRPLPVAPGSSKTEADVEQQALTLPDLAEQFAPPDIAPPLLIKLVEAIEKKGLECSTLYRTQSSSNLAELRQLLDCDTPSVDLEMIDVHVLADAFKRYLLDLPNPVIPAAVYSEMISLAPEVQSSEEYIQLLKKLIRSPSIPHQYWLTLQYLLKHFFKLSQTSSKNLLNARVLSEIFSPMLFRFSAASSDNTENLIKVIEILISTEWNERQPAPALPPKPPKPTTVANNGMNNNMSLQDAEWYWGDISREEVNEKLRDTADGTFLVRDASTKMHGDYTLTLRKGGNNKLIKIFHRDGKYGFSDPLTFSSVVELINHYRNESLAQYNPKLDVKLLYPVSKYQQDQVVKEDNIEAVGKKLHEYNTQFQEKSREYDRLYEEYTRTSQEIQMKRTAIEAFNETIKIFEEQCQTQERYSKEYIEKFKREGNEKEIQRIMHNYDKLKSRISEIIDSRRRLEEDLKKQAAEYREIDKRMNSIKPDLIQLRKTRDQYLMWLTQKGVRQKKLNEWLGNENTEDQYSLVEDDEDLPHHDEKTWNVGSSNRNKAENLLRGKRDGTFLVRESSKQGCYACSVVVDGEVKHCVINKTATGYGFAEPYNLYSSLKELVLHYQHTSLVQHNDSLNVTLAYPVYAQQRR
Chain of PI3K-α (PIK3CA) in MDA-MB-453 cells (P42336 whole entry): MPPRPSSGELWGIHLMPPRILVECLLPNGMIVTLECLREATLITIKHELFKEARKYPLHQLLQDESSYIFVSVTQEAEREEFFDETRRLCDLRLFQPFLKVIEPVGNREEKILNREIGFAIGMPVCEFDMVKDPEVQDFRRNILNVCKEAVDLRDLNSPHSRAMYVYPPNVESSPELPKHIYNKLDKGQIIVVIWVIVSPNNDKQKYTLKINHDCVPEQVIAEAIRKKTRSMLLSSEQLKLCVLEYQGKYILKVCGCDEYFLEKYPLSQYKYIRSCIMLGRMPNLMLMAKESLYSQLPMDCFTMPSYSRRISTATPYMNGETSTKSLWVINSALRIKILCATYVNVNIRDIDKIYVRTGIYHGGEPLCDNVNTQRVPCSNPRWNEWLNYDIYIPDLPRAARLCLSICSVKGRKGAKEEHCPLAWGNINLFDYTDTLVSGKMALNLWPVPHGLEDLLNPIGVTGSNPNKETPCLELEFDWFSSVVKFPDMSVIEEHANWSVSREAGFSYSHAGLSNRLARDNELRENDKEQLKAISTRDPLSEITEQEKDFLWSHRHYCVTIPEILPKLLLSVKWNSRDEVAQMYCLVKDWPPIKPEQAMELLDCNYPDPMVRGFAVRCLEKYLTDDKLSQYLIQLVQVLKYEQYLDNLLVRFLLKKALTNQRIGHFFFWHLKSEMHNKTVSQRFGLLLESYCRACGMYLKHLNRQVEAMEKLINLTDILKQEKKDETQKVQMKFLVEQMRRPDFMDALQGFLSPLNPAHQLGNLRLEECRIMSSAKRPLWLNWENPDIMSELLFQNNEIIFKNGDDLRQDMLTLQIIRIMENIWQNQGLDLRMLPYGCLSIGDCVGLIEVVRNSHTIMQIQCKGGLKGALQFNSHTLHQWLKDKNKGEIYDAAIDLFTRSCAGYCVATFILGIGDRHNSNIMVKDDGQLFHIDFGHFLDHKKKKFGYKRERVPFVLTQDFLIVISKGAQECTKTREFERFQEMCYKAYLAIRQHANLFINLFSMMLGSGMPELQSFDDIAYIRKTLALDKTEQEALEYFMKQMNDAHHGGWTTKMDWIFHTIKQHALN
Background: Alpha assays give light when donor and acceptor beads are brought close together.

The target in test [2] is T1, PI3K-α (PIK3CA) H1047R mutant, p110α/p85α complex (Homo sapiens, UniProt P42336, H1047R).
T1 construct: Recombinant, catalytically active human full length PIK3KA Wild-type and H1047R mutant; 6×His (N); purchased EMD Millipore Sigma 14-792M
T1 sequence (P42336 whole entry H1047R): as the sequence (P42336 whole entry) above, with H1047R counted along it
T1 sequence (P27986 whole entry partner): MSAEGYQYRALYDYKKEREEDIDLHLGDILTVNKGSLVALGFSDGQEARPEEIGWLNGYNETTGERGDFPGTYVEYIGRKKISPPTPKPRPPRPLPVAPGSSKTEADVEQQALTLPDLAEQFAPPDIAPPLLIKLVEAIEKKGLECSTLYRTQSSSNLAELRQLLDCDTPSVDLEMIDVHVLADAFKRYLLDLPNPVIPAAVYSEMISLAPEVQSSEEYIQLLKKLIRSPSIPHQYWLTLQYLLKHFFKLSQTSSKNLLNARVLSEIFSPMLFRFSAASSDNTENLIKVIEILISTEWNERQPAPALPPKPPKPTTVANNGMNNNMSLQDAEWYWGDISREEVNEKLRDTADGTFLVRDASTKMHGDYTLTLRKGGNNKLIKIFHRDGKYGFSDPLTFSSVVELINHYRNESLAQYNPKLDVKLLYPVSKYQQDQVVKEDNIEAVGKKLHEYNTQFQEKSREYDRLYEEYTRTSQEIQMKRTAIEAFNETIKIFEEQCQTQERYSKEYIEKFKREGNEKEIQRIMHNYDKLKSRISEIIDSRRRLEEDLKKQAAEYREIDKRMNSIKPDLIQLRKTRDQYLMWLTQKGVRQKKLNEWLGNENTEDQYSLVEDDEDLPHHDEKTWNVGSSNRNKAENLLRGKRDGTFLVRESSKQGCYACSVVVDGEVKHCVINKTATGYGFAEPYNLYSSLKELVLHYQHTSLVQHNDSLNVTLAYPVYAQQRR
Briefly: PI3K-alpha kinase (PIK3CA) biochemical activity, ADP-Glo, H1047R mutant. The following applies: Soy PI lipid substrate. In short, it runs like this:
(§1)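 ADP formation measured by ADP-Glo luminescence after reaction at 27 °C to about 10% ATP turnover, using 20 uM ATP, 50 uM PIP2diC8 or soy PI lipid, HEPES pH 7.4 with MgCl2. Enzyme (1-5 nM WT or H1047R p110α/p85α) and compound preincubated 1 h first; 10-point 1:3 curves fitted four-parameter for IC50.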

The target of test [3] is T2, PI3K-α (PIK3CA) wild-type (WT), p110α/p85α complex (Homo sapiens, UniProt P42336).
T2 construct: Recombinant, catalytically active human full length PIK3KA Wild-type and H1047R mutant; 6×His (N); purchased EMD Millipore Sigma 14-602M
As to the kind of experiment: PI3K-alpha kinase (PIK3CA) biochemical activity, ADP-Glo, wild-type. The settings on record: Soy PI lipid substrate. The method, boiled down:
as §1
Background: ADP-Glo turns the ADP formed in a reaction into a luminescent signal.

16 compounds from US11878970B2, “Allosteric chromenone inhibitors of phosphoinositide 3-kinase (PI3K) for the treatment of disease” (Petra Pharma Corporation, priority 2021, dated 2024) can be followed below.

Some results are limits rather than exact numbers.

`CC(Nc1ccccc1C(=O)O)c1cc(F)cc2c(=O)cc(-c3cc4ccccc4[nH]3)oc12` (single isomer, unassigned) [Example 128, 2-[1-[6-Fluoro-2-(1H-indol-2-yl)-4-oxo-chromen-8-yl]ethylamino]benzoic acid]: the IC50 in test [1] is less than 50 nM; in test [2], less than 500 nM; in test [3], 500 to 1000 nM.

With `Cc1cc(C(C)Nc2ccc(Cl)nc2C(=O)O)c2oc(-c3cc4ccccc4[nH]3)cc(=O)c2c1` (single isomer, unassigned) [Example 223, 6-Chloro-3-[1-[2-(1H-indol-2-yl)-6-methyl-4-oxo-chromen-8-yl]ethylamino]pyridine-2-carboxylic acid], the figures for the IC50 in test [1], in test [2] and in test [3] were less than 50 nM, less than 500 nM and 500 to 1000 nM, respectively.

Turning to `Cc1cc(C(C)Nc2ccccc2C(=O)O)c2oc(-c3ccc4cn(C)nc4c3)cc(=O)c2c1` (single isomer, unassigned) [Example 1, 2-[1-[6-Methyl-2-(2-methylindazol-6-yl)-4-oxo-chromen-8-yl]ethylamino]benzoic acid], the figures for the IC50 in test [1], in test [2] and in test [3] were 50 to 100 nM, less than 500 nM and 1000 to 5000 nM, respectively.

With `Cc1cc(C(C)Nc2ccc(Cl)nc2C(=O)O)c2oc(-c3ccc4cnn(C)c4c3)cc(=O)c2c1` (single isomer, unassigned) [Example 220, 6-Chloro-3-[1-[6-methyl-2-(1-methylindazol-6-yl)-4-oxo-chromen-8-yl]ethylamino]pyridine-2-carboxylic acid], the IC50 in test [1] is less than 50 nM; in test [2], less than 500 nM; in test [3], less than 500 nM.

For `Cc1cc([C@@H](C)Nc2ccc(Cl)nc2C(=O)O)c2oc(-c3cc4cnccc4o3)c(C)c(=O)c2c1` [Example 214, 6-Chloro-3-[[(1R)-1-(2-furo[3,2-c]pyridin-2-yl-3,6-dimethyl-4-oxo-chromen-8-yl)ethyl]amino]pyridine-2-carboxylic acid], the half-inhibitory concentration (IC50) in test [1] is less than 50 nM; in test [2], less than 500 nM; in test [3], less than 500 nM.

Take `Cc1cc(C(C)Nc2ccccc2C(=O)O)c2oc(-c3cnc4cc[nH]c4c3)cc(=O)c2c1` (single isomer, unassigned) [Example 71, 2-[1-[6-Methyl-4-oxo-2-(1H-pyrrolo[3,2-b]pyridin-6-yl)chromen-8-yl]ethylamino]benzoic acid]: the IC50 in test [1] is 100 to 500 nM; in test [2] it was less than 500 nM; in test [3], 1000 to 5000 nM.

Regarding `Cc1cc(C(C)Nc2ccccc2C(=O)O)c2oc(-c3ccc4nccn4n3)cc(=O)c2c1` (single isomer, unassigned) [Example 35, 2-[1-(2-Imidazo[1,2-b]pyridazin-6-yl-6-methyl-4-oxo-chromen-8-yl)ethylamino]benzoic acid], the IC50 in test [1] is greater than 500 nM; in test [2] it was 5000 to 10000 nM; in test [3] it was 5000 to 10000 nM.

As to `Cc1cc(C(C)Nc2cccc(F)c2C(=O)O)c2oc(-c3ccc4cnn(C)c4c3)cc(=O)c2c1` (single isomer, unassigned) [Example 222, 2-fluoro-6-[1-[6-methyl-2-(1-methylindazol-6-yl)-4-oxo-chromen-8-yl]ethylamino]benzoic acid], the IC50 in test [1] is 100 to 500 nM; in test [2] it was less than 500 nM; in test [3] it was 500 to 1000 nM.

On to `Cc1cc(C(C)Nc2ccc(Cl)nc2C(=O)O)c2oc(-c3ccc4c(cnn4C)c3)cc(=O)c2c1` (single isomer, unassigned) [Example 218, 6-Chloro-3-[1-[6-methyl-2-(1-methylindazol-5-yl)-4-oxo-chromen-8-yl]ethylamino]pyridine-2-carboxylic acid], for which the IC50 in test [1] is less than 50 nM; in test [2] it was less than 500 nM; in test [3], less than 500 nM.

In the case of `Cc1cc([C@@H](C)Nc2cccc(F)c2C(=O)O)c2oc(-c3ccc4nn(C)cc4c3)c(C)c(=O)c2c1` [Example 227, 2-[[(1R)-1-[3,6-Dimethyl-2-(2-methylindazol-5-yl)-4-oxo-chromen-8-yl]ethyl]amino]-6-fluoro-benzoic acid], the values for the concentration for half-maximal inhibition (IC50) in test [1], in test [2] and in test [3] were less than 50 nM, less than 500 nM and 500 to 1000 nM, respectively.

`Cc1cc([C@@H](C)Nc2cccnc2C(=O)O)c2oc(-c3ccc4nc(C)sc4n3)cc(=O)c2c1` [Example 239, 3-[[(1R)-1-[6-Methyl-2-(2-methylthiazolo[5,4-b]pyridin-5-yl)-4-oxo-chromen-8-yl]ethyl]amino]pyridine-2-carboxylic acid]: the figures for the half-inhibitory concentration (IC50) in test [1], in test [2] and in test [3] were 100 to 500 nM, 1000 to 5000 nM and greater than 10000 nM, respectively.

Turning to `Cc1cc([C@@H](C)Nc2ccccc2C(=O)O)c2oc(-c3cc(C(F)(F)F)c4nn(C)cc4c3)cc(=O)c2c1` [Example 198, 2-[[(1R)-1-[6-Methyl-2-[2-methyl-7-(trifluoromethyl)indazol-5-yl]-4-oxo-chromen-8-yl]ethyl]amino]benzoic acid], the figures for the IC50 in test [1], in test [2] and in test [3] were 50 to 100 nM, less than 500 nM and less than 500 nM, respectively.

With `Cc1cc(C(C)Nc2ccccc2C(=O)O)c2oc(-c3cccc4ocnc34)cc(=O)c2c1` (single isomer, unassigned) [Example 110, 2-[1-[2-(1,3-Benzoxazol-4-yl)-6-methyl-4-oxo-chromen-8-yl]ethylamino]benzoic acid], the IC50 is less than 50 nM in test [1], less than 500 nM in test [2] and 5000 to 10000 nM in test [3].

Take `Cc1cc(C(C)Nc2ccc(Cl)nc2C(=O)O)c2oc(-c3ccc4c(c3)c(C)nn4C)cc(=O)c2c1` (single isomer, unassigned) [Example 224, 6-Chloro-3-[1-[2-(1,3-dimethylindazol-5-yl)-6-methyl-4-oxo-chromen-8-yl]ethylamino]pyridine-2-carboxylic acid]: the values for the IC50 in test [1], in test [2] and in test [3] were less than 50 nM, less than 500 nM and less than 500 nM, respectively.

As for `Cc1cc(C(C)Nc2ccccc2C(=O)O)c2oc(-c3ccc4nc(C)cn4c3)cc(=O)c2c1` (single isomer, unassigned) [Example 37, 2-[1-[6-Methyl-2-(2-methylimidazo[1,2-a]pyridin-6-yl)-4-oxo-chromen-8-yl]ethylamino]benzoic acid], the concentration for half-maximal inhibition (IC50) was greater than 500 nM in test [1], greater than 10000 nM in test [2] and 1000 to 5000 nM in test [3].

Take `Cc1cc([C@@H](C)Nc2ccc(Cl)cc2C(=O)O)c2oc(-c3ccc4c(cnn4C)c3)c(C)c(=O)c2c1` [Example 259, 5-Chloro-2-[[(1R)-1-[3,6-dimethyl-2-(1-methylindazol-5-yl)-4-oxo-chromen-8-yl]ethyl]amino]benzoic acid]: the concentration for half-maximal inhibition (IC50) in test [1] was 50 to 100 nM; in test [2], less than 500 nM; in test [3], less than 500 nM.

What is called IC50 is the point on the concentration scale where inhibition reaches its midpoint.
